{
  "source": "patent US11208412B2",
  "about": "(DAEGU-GYEONGBUK MEDICAL INNOVATION FOUNDATION, priority 2017, dated 2021)",
  "test_in_all_cases": "Kinase selectivity, DiscoverX scanMAX Kinase assay panel (% control)",
  "format_in_all_cases": "binding",
  "key": {"[1]": {"molecular_target": "T1, kinases of the scanMAX Kinase assay panel (Homo sapiens, UniProt O15075)", "T1 construct": "purchased DiscoverX Co. (contract measurement) scanMAX Kinase assay panel", "conditions": "DCAMKL1; 1 uM", "in_short": "(§1)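 Compounds were tested at 1 uM (in DMSO) against each panel kinase. % control was calculated as (compound − positive control)/(negative control − positive control)×100, where the positive control gives 0% and DMSO gives 100%. Activity toward a kinase was called at % control <35%.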"}, "[2]": {"molecular_target": "T2, kinases of the scanMAX Kinase assay panel (Homo sapiens, UniProt P00519, H396P)", "T2 construct": "purchased DiscoverX Co. (contract measurement) scanMAX Kinase assay panel", "conditions": "1 uM", "in_short": "as §1"}, "[3]": {"molecular_target": "T3, kinases of the scanMAX Kinase assay panel (Homo sapiens, UniProt P00533)", "T3 construct": "purchased DiscoverX Co. (contract measurement) scanMAX Kinase assay panel", "conditions": "EGFR; 1 uM", "in_short": "as §1"}, "[4]": {"molecular_target": "T4, kinases of the scanMAX Kinase assay panel (Homo sapiens, UniProt P04629)", "T4 construct": "purchased DiscoverX Co. (contract measurement) scanMAX Kinase assay panel", "conditions": "kinase TRKA; 1 uM in DMSO", "in_short": "as §1"}, "[5]": {"molecular_target": "T5, kinases of the scanMAX Kinase assay panel (Homo sapiens, UniProt P42336, M1043I)", "T5 construct": "purchased DiscoverX Co. (contract measurement) scanMAX Kinase assay panel", "T5 sequence (P42336 whole entry M1043I)": "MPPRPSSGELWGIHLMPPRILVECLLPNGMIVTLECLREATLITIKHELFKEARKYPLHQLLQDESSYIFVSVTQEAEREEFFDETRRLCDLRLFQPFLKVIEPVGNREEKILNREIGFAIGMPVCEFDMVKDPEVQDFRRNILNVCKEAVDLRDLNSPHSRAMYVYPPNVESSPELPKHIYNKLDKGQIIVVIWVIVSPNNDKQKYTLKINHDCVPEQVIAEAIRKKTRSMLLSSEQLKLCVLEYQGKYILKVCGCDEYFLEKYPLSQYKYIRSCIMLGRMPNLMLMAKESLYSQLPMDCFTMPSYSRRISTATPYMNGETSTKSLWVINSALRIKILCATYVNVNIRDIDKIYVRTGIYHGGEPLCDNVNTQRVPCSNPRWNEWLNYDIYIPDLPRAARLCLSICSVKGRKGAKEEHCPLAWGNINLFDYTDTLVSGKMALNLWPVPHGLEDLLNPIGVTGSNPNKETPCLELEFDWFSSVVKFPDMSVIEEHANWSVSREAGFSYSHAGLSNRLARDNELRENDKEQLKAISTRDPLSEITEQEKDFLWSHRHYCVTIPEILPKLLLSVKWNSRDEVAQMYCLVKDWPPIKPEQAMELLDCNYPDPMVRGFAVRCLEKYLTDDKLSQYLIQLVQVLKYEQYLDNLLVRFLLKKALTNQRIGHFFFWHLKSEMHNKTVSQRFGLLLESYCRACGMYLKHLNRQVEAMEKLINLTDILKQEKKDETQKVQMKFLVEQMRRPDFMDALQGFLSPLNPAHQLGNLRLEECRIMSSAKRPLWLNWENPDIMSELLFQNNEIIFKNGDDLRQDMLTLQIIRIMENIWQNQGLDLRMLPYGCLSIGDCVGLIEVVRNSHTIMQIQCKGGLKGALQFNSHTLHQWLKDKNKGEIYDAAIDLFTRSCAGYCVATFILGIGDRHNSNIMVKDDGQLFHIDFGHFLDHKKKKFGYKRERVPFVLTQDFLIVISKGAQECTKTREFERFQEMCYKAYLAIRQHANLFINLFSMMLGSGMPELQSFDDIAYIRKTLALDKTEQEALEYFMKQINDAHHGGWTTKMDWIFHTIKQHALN", "conditions": "PIK3CA(M1043I); 1 uM", "in_short": "as §1"}, "[6]": {"molecular_target": "T6, kinases of the scanMAX Kinase assay panel (Homo sapiens, UniProt P54760)", "T6 construct": "purchased DiscoverX Co. (contract measurement) scanMAX Kinase assay panel", "T6 sequence (P54760 16-987)": "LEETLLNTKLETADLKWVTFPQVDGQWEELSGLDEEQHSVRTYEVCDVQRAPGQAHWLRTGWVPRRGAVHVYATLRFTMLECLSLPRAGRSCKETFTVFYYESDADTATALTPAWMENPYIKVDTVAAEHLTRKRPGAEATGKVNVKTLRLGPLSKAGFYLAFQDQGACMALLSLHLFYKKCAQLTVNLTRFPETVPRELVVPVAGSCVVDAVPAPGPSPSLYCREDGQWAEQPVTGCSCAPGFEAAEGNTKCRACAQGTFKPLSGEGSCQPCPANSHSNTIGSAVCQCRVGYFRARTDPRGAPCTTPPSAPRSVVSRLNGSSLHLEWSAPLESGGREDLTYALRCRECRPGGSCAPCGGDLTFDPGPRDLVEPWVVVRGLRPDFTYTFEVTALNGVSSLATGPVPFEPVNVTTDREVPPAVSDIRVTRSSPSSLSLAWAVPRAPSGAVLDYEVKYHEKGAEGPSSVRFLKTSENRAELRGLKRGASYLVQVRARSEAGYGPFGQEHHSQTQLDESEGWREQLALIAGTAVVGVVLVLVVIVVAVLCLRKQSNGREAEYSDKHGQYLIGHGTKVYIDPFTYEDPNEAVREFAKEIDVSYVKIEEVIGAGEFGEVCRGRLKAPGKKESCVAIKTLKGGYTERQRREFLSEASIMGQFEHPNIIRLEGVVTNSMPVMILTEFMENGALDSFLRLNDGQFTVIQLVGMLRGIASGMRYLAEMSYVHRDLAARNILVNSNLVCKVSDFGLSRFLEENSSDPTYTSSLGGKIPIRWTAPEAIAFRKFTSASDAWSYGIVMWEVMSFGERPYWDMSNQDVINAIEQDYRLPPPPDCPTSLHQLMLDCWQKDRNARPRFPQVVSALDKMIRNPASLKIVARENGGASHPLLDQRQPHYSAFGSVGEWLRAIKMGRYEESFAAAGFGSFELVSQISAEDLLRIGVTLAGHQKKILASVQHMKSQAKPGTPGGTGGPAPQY", "conditions": "EPHB4; 1 uM", "in_short": "as §1"}, "[7]": {"molecular_target": "T7, kinases of the scanMAX Kinase assay panel (Homo sapiens, UniProt Q00537)", "T7 construct": "purchased DiscoverX Co. (contract measurement) scanMAX Kinase assay panel", "conditions": "PCTK2; 1 uM", "in_short": "as §1"}, "[8]": {"molecular_target": "T8, kinases of the scanMAX Kinase assay panel (Homo sapiens, UniProt Q12851)", "T8 construct": "purchased DiscoverX Co. (contract measurement) scanMAX Kinase assay panel", "T8 sequence (Q12851 1-820)": "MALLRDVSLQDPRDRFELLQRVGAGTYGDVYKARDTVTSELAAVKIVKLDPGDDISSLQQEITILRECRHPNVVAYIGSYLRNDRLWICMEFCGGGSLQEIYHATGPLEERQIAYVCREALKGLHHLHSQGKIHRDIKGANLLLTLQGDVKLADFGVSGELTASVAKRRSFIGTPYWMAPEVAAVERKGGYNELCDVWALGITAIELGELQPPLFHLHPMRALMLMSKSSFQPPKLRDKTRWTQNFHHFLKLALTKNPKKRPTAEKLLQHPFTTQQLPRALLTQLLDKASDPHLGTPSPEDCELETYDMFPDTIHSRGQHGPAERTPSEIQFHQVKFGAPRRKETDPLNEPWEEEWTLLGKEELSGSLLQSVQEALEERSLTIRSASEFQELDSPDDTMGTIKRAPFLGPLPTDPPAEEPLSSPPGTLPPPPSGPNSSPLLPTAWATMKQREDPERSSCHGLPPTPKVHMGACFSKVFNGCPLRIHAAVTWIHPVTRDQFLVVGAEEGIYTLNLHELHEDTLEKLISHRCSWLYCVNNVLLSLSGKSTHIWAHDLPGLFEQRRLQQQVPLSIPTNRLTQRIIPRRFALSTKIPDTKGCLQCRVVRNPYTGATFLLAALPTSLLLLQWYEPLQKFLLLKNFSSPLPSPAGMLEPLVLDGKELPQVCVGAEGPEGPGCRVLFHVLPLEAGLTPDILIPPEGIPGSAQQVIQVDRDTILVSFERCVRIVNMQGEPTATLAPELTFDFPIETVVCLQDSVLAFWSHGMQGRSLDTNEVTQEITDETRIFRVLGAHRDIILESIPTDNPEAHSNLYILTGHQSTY", "conditions": "MAP4K2; 1 uM", "in_short": "as §1"}, "[9]": {"molecular_target": "T9, kinases of the scanMAX Kinase assay panel (Homo sapiens, UniProt Q9H4A3)", "T9 construct": "purchased DiscoverX Co. (contract measurement) scanMAX Kinase assay panel", "conditions": "kinase WNK1; 1 uM in DMSO", "in_short": "as §1"}, "[10]": {"molecular_target": "T10, kinases of the scanMAX Kinase assay panel (Homo sapiens, UniProt Q9UM73, C1156Y)", "T10 construct": "purchased DiscoverX Co. (contract measurement) scanMAX Kinase assay panel", "T10 sequence (Q9UM73 19-1620 C1156Y)": "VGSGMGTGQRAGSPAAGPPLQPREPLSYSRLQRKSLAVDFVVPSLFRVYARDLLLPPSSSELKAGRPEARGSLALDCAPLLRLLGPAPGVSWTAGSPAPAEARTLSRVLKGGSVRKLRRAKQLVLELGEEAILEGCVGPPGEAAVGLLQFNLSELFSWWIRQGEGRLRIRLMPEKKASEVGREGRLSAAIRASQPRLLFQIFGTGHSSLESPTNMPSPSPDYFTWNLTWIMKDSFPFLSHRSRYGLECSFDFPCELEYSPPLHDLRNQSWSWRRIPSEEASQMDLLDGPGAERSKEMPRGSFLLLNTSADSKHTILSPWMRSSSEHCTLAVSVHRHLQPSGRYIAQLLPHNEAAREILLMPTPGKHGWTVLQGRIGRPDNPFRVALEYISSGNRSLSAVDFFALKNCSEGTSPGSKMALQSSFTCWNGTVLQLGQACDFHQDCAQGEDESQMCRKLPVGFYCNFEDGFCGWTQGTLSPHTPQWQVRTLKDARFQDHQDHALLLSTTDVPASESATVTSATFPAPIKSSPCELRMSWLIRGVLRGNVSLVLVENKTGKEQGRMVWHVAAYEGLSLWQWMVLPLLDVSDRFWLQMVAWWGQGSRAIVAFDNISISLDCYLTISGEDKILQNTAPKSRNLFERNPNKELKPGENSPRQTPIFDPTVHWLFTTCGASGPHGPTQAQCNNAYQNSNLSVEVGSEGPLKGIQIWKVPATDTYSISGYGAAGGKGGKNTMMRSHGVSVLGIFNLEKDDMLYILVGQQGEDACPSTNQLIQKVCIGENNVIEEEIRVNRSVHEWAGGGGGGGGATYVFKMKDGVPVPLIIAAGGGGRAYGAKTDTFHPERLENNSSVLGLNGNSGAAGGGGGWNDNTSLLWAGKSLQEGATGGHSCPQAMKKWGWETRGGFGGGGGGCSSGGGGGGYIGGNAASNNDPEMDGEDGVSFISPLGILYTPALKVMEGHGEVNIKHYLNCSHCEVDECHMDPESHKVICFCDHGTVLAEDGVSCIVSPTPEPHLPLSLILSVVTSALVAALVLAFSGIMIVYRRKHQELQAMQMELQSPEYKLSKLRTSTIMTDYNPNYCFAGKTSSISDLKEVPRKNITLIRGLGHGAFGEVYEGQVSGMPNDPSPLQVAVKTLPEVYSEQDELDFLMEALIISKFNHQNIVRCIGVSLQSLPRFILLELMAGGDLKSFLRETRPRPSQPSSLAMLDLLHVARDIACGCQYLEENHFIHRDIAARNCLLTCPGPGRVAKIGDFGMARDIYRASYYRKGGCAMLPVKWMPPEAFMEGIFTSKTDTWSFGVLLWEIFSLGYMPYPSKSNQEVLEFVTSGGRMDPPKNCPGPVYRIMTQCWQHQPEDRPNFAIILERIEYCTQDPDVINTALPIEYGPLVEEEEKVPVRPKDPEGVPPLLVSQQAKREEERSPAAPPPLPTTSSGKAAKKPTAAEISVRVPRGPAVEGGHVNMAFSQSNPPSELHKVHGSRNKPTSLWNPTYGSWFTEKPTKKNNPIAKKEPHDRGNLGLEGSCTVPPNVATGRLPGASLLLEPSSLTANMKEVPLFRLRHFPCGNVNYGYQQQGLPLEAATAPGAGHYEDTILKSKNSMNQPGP", "conditions": "ALK(C1156Y); 1 uM", "in_short": "as §1"}, "[11]": {"molecular_target": "T11, kinases of the scanMAX Kinase assay panel (Homo sapiens, UniProt Q9Y3S1)", "T11 construct": "purchased DiscoverX Co. (contract measurement) scanMAX Kinase assay panel", "T11 sequence (Q9Y3S1 whole entry)": "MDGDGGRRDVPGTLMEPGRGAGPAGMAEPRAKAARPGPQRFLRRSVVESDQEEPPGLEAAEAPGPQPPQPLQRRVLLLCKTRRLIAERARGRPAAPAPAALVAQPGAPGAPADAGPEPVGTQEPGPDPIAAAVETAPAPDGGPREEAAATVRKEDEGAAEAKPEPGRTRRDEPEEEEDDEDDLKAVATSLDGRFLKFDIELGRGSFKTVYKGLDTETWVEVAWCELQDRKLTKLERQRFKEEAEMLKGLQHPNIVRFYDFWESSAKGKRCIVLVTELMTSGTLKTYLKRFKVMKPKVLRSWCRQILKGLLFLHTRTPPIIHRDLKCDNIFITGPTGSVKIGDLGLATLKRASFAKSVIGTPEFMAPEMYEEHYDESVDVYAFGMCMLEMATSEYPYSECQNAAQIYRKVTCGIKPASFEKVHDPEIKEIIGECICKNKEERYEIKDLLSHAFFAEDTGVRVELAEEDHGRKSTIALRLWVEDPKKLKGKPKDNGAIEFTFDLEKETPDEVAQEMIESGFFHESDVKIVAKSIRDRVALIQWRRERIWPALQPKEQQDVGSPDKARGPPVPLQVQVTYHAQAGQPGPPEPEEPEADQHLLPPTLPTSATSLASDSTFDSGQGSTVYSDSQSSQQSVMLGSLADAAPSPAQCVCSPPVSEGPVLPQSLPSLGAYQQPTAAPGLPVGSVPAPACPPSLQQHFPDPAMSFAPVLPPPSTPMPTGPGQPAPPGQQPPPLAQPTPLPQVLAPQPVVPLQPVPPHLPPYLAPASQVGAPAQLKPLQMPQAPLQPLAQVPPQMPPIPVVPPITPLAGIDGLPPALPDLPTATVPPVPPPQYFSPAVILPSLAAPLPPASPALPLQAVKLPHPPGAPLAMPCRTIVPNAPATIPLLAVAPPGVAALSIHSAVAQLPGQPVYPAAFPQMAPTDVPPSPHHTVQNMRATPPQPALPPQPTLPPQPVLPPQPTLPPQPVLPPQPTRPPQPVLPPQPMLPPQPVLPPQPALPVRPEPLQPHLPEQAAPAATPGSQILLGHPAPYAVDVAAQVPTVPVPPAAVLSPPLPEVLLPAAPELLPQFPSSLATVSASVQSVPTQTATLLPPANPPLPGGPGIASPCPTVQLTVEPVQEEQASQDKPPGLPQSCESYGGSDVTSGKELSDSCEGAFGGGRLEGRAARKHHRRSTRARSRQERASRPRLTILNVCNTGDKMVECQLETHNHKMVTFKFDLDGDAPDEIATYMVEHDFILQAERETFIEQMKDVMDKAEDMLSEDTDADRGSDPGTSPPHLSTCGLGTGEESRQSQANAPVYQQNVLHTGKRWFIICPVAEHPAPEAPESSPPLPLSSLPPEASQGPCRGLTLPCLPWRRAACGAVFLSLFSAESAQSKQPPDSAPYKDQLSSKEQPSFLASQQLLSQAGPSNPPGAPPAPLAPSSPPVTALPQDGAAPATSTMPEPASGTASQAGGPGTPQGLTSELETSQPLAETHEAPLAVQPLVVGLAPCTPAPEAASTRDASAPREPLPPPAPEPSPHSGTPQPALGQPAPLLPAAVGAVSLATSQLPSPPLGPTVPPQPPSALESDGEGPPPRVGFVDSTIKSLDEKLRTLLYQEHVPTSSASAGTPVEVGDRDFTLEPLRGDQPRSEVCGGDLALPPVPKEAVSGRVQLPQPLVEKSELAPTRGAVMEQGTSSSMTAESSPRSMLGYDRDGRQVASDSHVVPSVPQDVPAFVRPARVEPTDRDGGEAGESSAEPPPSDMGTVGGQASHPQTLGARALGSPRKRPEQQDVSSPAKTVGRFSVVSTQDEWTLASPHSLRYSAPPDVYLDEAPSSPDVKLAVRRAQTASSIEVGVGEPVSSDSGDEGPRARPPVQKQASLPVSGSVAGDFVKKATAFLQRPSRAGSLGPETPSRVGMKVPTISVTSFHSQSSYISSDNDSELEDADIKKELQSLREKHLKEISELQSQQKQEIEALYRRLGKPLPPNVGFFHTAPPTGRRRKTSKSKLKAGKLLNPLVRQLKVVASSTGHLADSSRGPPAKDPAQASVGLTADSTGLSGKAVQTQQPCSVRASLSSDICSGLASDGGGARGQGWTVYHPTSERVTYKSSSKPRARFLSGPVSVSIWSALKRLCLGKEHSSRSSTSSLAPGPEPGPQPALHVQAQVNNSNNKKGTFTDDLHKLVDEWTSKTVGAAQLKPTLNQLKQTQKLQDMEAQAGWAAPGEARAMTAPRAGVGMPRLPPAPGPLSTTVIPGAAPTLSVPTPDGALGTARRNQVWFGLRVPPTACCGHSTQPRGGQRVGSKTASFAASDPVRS", "conditions": "kinase WNK2; 1 uM in DMSO", "in_short": "as §1"}},
  "data": [
    {"smiles": "CNc1nc(Nc2ccc(C(=O)N3CCOCC3)cc2OC)nc2[nH]cc(C#N)c12", "note": "[Example 1, 2-((2-methoxy-4-(morpholine-4-carbonyl)phenyl)amino)-4-(methylamino)-7H-pyrrolo[2,3-d]pyrimidine-5-carbonitrile]", "values": [
      {"measurement": "remaining binding at 1 µM", "setting": "[1]", "result": 57, "unit": "%"},
      {"measurement": "remaining binding at 1 µM", "setting": "[2]; ABL1(H396P)-nonphosphorylated", "result": 81, "unit": "%"},
      {"measurement": "remaining binding at 1 µM", "setting": "[2]; ABL1(H396P)-phosphorylated", "result": 94, "unit": "%"},
      {"measurement": "remaining binding at 1 µM", "setting": "[3]", "result": 91, "unit": "%"},
      {"measurement": "remaining binding at 1 µM", "setting": "[4]", "result": 67, "unit": "%"},
      {"measurement": "remaining binding at 1 µM", "setting": "[5]", "result": 94, "unit": "%"},
      {"measurement": "remaining binding at 1 µM", "setting": "[6]", "result": 95, "unit": "%"},
      {"measurement": "remaining binding at 1 µM", "setting": "[7]", "result": 98, "unit": "%"},
      {"measurement": "remaining binding at 1 µM", "setting": "[8]", "result": 75, "unit": "%"},
      {"measurement": "remaining binding at 1 µM", "setting": "[9]", "result": 70, "unit": "%"},
      {"measurement": "remaining binding at 1 µM", "setting": "[10]", "result": 9.3, "unit": "%"},
      {"measurement": "remaining binding at 1 µM", "setting": "[11]", "result": 52, "unit": "%"}
    ]},
    {"smiles": "CC1(Nc2nc(Nc3cnn([C@H]4CCN(C5COC5)C[C@@H]4F)c3Cl)nc3[nH]cc(C#N)c23)CC1", "note": "[Example 52, 2-((5-chloro-1-((3S,4S)-3-fluoro-1-(oxetane-3-yl)piperidine-4-yl)-1H-pyrazole-4-yl)amino)((1-methylcyclopropyl)amino)-7H-pyrrolo[2,3-d]pyrimidine-5-carbonitrile]", "values": [
      {"measurement": "remaining binding at 1 µM", "setting": "[1]", "result": 34, "unit": "%"},
      {"measurement": "remaining binding at 1 µM", "setting": "[2]; ABL1(H396P)-nonphosphorylated", "result": 0.55, "unit": "%"},
      {"measurement": "remaining binding at 1 µM", "setting": "[2]; ABL1(H396P)-phosphorylated", "result": 0.9, "unit": "%"},
      {"measurement": "remaining binding at 1 µM", "setting": "[3]", "result": 31, "unit": "%"},
      {"measurement": "remaining binding at 1 µM", "setting": "[4]", "result": 0.5, "unit": "%"},
      {"measurement": "remaining binding at 1 µM", "setting": "[5]", "result": 37, "unit": "%"},
      {"measurement": "remaining binding at 1 µM", "setting": "[6]", "result": 48, "unit": "%"},
      {"measurement": "remaining binding at 1 µM", "setting": "[7]", "result": 88, "unit": "%"},
      {"measurement": "remaining binding at 1 µM", "setting": "[8]", "result": 1.2, "unit": "%"},
      {"measurement": "remaining binding at 1 µM", "setting": "[9]", "result": 99, "unit": "%"},
      {"measurement": "remaining binding at 1 µM", "setting": "[10]", "result": 0.8, "unit": "%"},
      {"measurement": "remaining binding at 1 µM", "setting": "[11]", "result": 56, "unit": "%"}
    ]},
    {"smiles": "CCNc1nc(Nc2ccc(C(=O)N3CCC(N4CCOCC4)CC3)cc2OC)nc2[nH]cc(C(F)(F)F)c12", "note": "[Example 104, (4-((4-(ethylamino)-5-(trifluoromethyl)-7H-pyrrolo[2,3-d]pyrimidine-2-yl)amino)-3-methoxyphenyl)(4-morpholinopiperidine-1-yl)methanone]", "values": [
      {"measurement": "remaining binding at 1 µM", "setting": "[1]", "result": 49, "unit": "%"},
      {"measurement": "remaining binding at 1 µM", "setting": "[2]; ABL1(H396P)-nonphosphorylated", "result": 96, "unit": "%"},
      {"measurement": "remaining binding at 1 µM", "setting": "[2]; ABL1(H396P)-phosphorylated", "result": 74, "unit": "%"},
      {"measurement": "remaining binding at 1 µM", "setting": "[3]", "result": 82, "unit": "%"},
      {"measurement": "remaining binding at 1 µM", "setting": "[4]", "result": 98, "unit": "%"},
      {"measurement": "remaining binding at 1 µM", "setting": "[5]", "result": 84, "unit": "%"},
      {"measurement": "remaining binding at 1 µM", "setting": "[6]", "result": 100, "unit": "%"},
      {"measurement": "remaining binding at 1 µM", "setting": "[7]", "result": 99, "unit": "%"},
      {"measurement": "remaining binding at 1 µM", "setting": "[8]", "result": 69, "unit": "%"},
      {"measurement": "remaining binding at 1 µM", "setting": "[9]", "result": 100, "unit": "%"},
      {"measurement": "remaining binding at 1 µM", "setting": "[10]", "result": 16, "unit": "%"},
      {"measurement": "remaining binding at 1 µM", "setting": "[11]", "result": 100, "unit": "%"}
    ]}
  ]
}
